# Patent US20050038072A1, “Nitrogeneous cyclic ketone derivative, process for producing the same, and use” (Takeda Chemical Industries, Ltd., priority 2001, published 2005)
# Where a name gives a salt, the structure may show the parent alone.
# Target: T1, substance P receptor (Homo sapiens, UniProt P25103)
# T1 construct: endogenous in cells; host or cells: IM-9 human lymphoblast cells (membrane preparation)
# Experiment: Radioligand receptor binding inhibiting activity (binding inhibitory activity using receptor from human lymphoblast cell (IM-9))
# Conditions: radioligand [125I]-labeled substance P (125I-BHSP), 25° C., 30 minutes
# Procedure: Radioligand receptor binding inhibiting activity (binding inhibitory activity using receptor from human lymphoblast cell (IM-9))
# A modified method by M. A. Cascieri et al (Molecular Pharmacology, Vol. 42, p. 458 (1992)) was employed. The receptor was prepared from a human lymphoblast cell (IM-9). After inoculation of IM-9 cells (2×10^5 cells/ml), the cells were cultured for 3 days (1L), and then the culture was centrifuged at 500×G for 5 minutes to obtain a cell pellet. The resultant pellet was washed once with a phosphate buffer (FLOW LABORATORIES, CAT. No. 28-103-05), fractured in 30 ml of a 50 mM Tris-HCl buffer (pH 7.4) containing 120 mM sodium chloride, 5 mM potassium chloride, 2 μg/ml chymostatin, 40 μg/ml bacitracin, 5 μg/ml phosphoramidone, 0.5 mM phenylmethylsulfonyl fluoride and 1 mM ethylenediamine tetraacetic acid using a polytron homogenizer (Kinematika, Germany), and centrifuged at 40,000×G for 20 minutes. The separated material was washed twice with 30 ml of the buffer solution described above and stored frozen as a receptor standard preparation (−80° C.)
# This preparation was suspended in a reaction buffer [50 mM Tris-HCl buffer (pH 7.4), 0.02% bovine serum albumin, 1 mM phenylmethylsulfonyl fluoride, 2 μg/ml of chymostatin, 40 μg/ml bacitracin, 3 mM manganese chloride] at a protein concentration of 0.5 mg/ml and a 100 μl portion was used for the reaction. The sample, 125I-BHSP (0.46 KBq) was also added and the mixture was reacted in a 0.2 ml reaction buffer at 25° C. for 30 minutes. A non-specific binding level was measured by adding substance P at 2×10^−6 M.
# After the reaction, a Cell Harvester [290PHD manufactured by Cambridge Technology, Inc, USA] was used to conduct a rapid filtration over a glass filter [GF/B manufactured by Whatman, USA] whereby terminating the reaction, followed by washing three times with 250 μl of a 50 mM Tris-HCl buffer solution (pH 7.4) containing 0.02% bovine serum albumin. Then, the radioactivity remaining on the filter was counted with a gamma counter. The filter was used after immersing in a 0.1% polyethylene imine over a whole day and night followed by drying in air.
# The radioligand means [^125I]-labeled substance P.
# T1 sequence (P25103 whole entry): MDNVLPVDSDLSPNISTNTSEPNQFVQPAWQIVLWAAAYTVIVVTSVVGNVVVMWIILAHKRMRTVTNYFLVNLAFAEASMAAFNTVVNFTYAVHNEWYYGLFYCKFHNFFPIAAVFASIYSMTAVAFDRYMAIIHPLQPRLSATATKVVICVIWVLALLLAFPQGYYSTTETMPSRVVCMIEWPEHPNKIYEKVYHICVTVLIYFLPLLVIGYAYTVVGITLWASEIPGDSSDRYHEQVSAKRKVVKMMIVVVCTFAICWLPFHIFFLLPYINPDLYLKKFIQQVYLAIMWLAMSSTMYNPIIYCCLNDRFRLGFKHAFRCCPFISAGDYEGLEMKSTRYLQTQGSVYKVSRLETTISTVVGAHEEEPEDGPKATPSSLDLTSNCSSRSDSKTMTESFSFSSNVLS
row,Compound,IC50 [nM]
1,"COc1ccc(OC(F)(F)F)cc1CN1CCC(=O)C(C(c2ccccc2)c2ccccc2)C1 (centres unmarked) [Example 168, 3-Benzhydryl-1-[2-methoxy-5-(trifluoromethoxy)benzyl]-4-piperidinone]",0.34
2,"CCOc1ccccc1CN1CCC(=O)C(C(c2ccccc2)c2ccccc2)C1 (centres unmarked) [Example 99, 3-Benzhydryl-1-(2-ethoxybenzyl)-4-piperidinone]",0.44
3,"COc1ccc(NS(C)(=O)=O)cc1CN1CCC(=O)C(C(c2ccccc2)c2ccccc2)C1 (centres unmarked) [Example 183, N-[3-[(3-Benzhydryl-4-oxo-1-piperidinyl)methyl]-4-methoxyphenyl]methanesulfonamide]",0.26
4,"COc1ccc(Br)cc1CN1CCC(=O)C(C(c2ccc(F)cc2)c2ccc(F)cc2)C1 (single isomer, unassigned; (-)) [Example 163, (−)-3-[Bis(4-fluorophenyl)methyl]-1-(5-bromo-2-methoxybenzyl)-4-piperidinone]",0.62
5,"COc1ccc(C(C)C)cc1CN1CCC(=O)C(C(c2ccccc2)c2ccccc2)C1 (centres unmarked) [Example 175, 3-Benzhydryl-1-(5-isopropyl-2-methoxybenzyl)-4-piperidinone]",0.42
6,"CCOc1ccc([N+](=O)[O-])cc1CN1CCC(=O)C(C(c2ccccc2)c2ccccc2)C1 (centres unmarked) [Example 185, 3-Benzhydryl-1-(2-ethoxy-5-nitrobenzyl)-4-piperidinone]",0.29
7,"CCOc1ccccc1CN1CCC(=O)C(C(c2ccc(F)cc2)c2ccc(F)cc2)C1 (centres unmarked) [Example 98, 3-[Bis(4-fluorophenyl)methyl]-1-(2-ethoxybenzyl)-4-piperidinone]",0.85

# System: not given
# Experiment: not given
# Conditions: not given
row,Compound,melting point
1,"O=C1CCN(Cc2cc([N+](=O)[O-])ccc2O)CC1C(c1ccccc1)c1ccccc1 (centres unmarked) [Example 184, 3-Benzhydryl-1-(2-hydroxy-5-nitrobenzyl)-4-piperidinone]",177 to 178 °C
2,O=C1CCNCC1C(c1ccccc1)c1ccccc1F (centres unmarked) (as salt: hydrochloride),204 to 205 °C
3,"COc1ccc(NS(C)(=O)=O)cc1CN1CCC(=O)C(C(c2ccccc2)c2ccccc2)C1 (centres unmarked) [Example 183, N-[3-[(3-Benzhydryl-4-oxo-1-piperidinyl)methyl]-4-methoxyphenyl]methanesulfonamide]",132 to 135 °C
4,"COc1c(CN2CCC(=O)C(C(c3ccccc3)c3ccccc3)C2)cc(C(C)(C)C)cc1C(C)(C)C (centres unmarked) [Example 161, 3-Benzhydryl-1-(3,5-di-tert-butyl-2-methoxybenzyl)-4-piperidinone]",136 to 138 °C
5,"O=C1CNCCC1C1c2ccccc2CCc2ccccc21 (centres unmarked) (as salt: hydrochloride) [Example 198, 4-(10,11-Dihydro-5H-dibenzo[a,d][7]annulen-5-yl)-3-piperidinone]",196 to 198 °C (dec.)
6,"COc1ccc2ccccc2c1CN1CCC(=O)C(C(c2ccc(F)cc2)c2ccc(F)cc2)C1 (centres unmarked) [Example 148, 3-[Bis(4-fluorophenyl)methyl]-1-[(2-methoxy-1-naphthyl)methyl]-4-piperidinone]",125 to 126 °C
7,"COc1ccc(N(S(C)(=O)=O)S(C)(=O)=O)cc1CN1CCC(=O)C(C(c2ccccc2)c2ccccc2)C1 (centres unmarked) [Example 178, N-[3-[(3-Benzhydryl-4-oxo-1-piperidinyl)methyl]-4-methoxyphenyl]-N-(methylsulfonyl)methanesulfonamide]",132 to 135 °C
8,"O=C1CN(Cc2ccccc2)CCC1C(c1ccc(F)cc1)c1ccc(F)cc1 (centres unmarked) (as salt: hydrochloride) [Example 195, 1-Benzyl-4-[bis(4-fluorophenyl)methyl]-3-piperidinone]",177.5 to 179 °C
9,"COc1ccc(OC(F)(F)F)cc1CN1CCC(=O)C(C(c2ccccc2)c2ccccc2)C1 (centres unmarked) (as salt: hydrochloride) [Example 168, 3-Benzhydryl-1-[2-methoxy-5-(trifluoromethoxy)benzyl]-4-piperidinone]",174 to 175 °C
10,"COc1ccc([N+](=O)[O-])cc1CN1CCC(=O)C(C(c2ccccc2)c2ccccc2)C1 (centres unmarked) [Example 176, 3-Benzhydryl-1-(2-methoxy-5-nitrobenzyl)-4-piperidinone]",119 to 120 °C
11,"O=C1CCN(Cc2ccccc2)CC1C(c1ccccc1)c1ccccc1F (centres unmarked) (as salt: hydrochloride) [Example 157, 1-Benzyl-3-[(2-fluorophenyl)(phenyl)methyl]-4-piperidinone]",214 to 215 °C
12,"CCOc1cccc(OC)c1CN1CCC(=O)C(C(c2ccccc2)c2ccccc2)C1 (centres unmarked) [Example 170, 3-Benzhydryl-1-(2-ethoxy-6-methoxybenzyl)-4-piperidinone]",137 to 138 °C
13,"O=C1CCN(Cc2ccccc2)CC1C(c1ccc(Cl)cc1)c1ccccc1Cl (centres unmarked) (as salt: hydrochloride) [Example 158, 1-Benzyl-3-[(2-chlorophenyl)(4-chlorophenyl)methyl]-4-piperidinone]",190 to 191 °C
